{
  "source": "patent US10842851B2",
  "about": "“Relaxin for treating patients afflicted of impaired glucose tolerance” (Immundiagnostik AG, priority 2012, dated 2020)",
  "key": {"[1]": {"tested_on": "Zucker Diabetic Fatty rats", "test": "HOMA-index in ZDF rats under sc relaxin", "type": "in vivo, rat", "details": "10-week old male ZDF rats, sc 500 μg/kg per day, within the 48-hour period", "source_text": "The homeostatic model assessment (HOMA=Insulin (μU/mi)×Glucose (mmol/l)/22.5) allows a quantification of insulin resistance and beta-cell function on the basis of mathematical equations describing glucose regulation as a feedback loop (see Matthews D R at al. Diabetologia 1985; 28(7): 412-9); Turner R C et al, Metabolism 1985; 28 (11): 1086-96). In order to assess the effects of relaxin on a diabetic metabolism we determined the HOMA of 10-week old male Zucker Diabetic Fatty rats (#25) pre-, during and post subcutanous administration of porcine relaxin (500 μg/kg rat per day). Thus, we determined the glucose and insulin levels in serum of 25 ZDF rats prior and 48 hours after sc administration of porcine relaxin. This was completed by follow-up determinations of glucose and insulin concentrations in serum 48 hours post the termination of the administration of porcine relaxin."}, "[2]": {"tested_on": "patients having type II diabetes or impaired glucose tolerance", "test": "HOMA-index in human patients under i.v. H2 relaxin", "type": "in vivo", "details": "i.v. over 16 hrs", "source_text": "In a study approved by the local ethical committee (Charité, Berlin, Germany) twelve patients (n=12) having type II diabetes or impaired glucose tolerance received intravenous synthetic H2 relaxin over a period of 16 hrs followed by a 24-hr follow-up. The anti-diabetic treatment of those patients was not varied. The improved HOMA-2 model used was in the present example because it reflects better human physiology. A HOMA of >2 indicates a potential insulin resistance; a HOMA of >2.5 beginning insulin resistance and a HOMA>5.0 is an average value of insulin resistance in untreated patients with manifest type-2 diabetes.\nOf those twelve patients in this study two patients received sequential treatment for 8 hours each with dosages equivalent to 10 and 30 μg/kg of subject body weight per day, 6 patients received sequential treatment with 240 and 480 μg/kg of subject body weight per day, and another 4 patients received a constant infusion of 960 μg/kg of subject body weight per day. This was completed by follow-up determinations of glucose and insulin levels in serum 24 hours post termination of the i.v. relaxin administration."}, "[3]": {"details": "cited from earlier work"}, "[4]": {"details": "over the entire dose range, previous pilot study (Dschietzig et al. 2009); cited from earlier work"}, "[5]": {"test": "Effect of relaxin on glucose levels in blood", "details": "in vivo"}, "[6]": {"tested_on": "rat insulinoma cells (INS-1 cells)", "test": "Insulin secretion of INS-1 cells under sustained glucose concentrations (rat insulin ELISA)", "type": "cell-based", "procedure": "In a further study we examined whether porcine relaxin has any effect on insulin expression and/or secretory capacity of pancreatic beta-cells. 2.5×10^5 rat insulinoma cells (INS-1 cells; see Mergler S et al, in Cellular Signalling (2008), doi: 10.1016/j.cellsig.2008.08.015) were plated in a 24-well plate and grown for three days in […] medium with supplements (Moore G. E. et. al., Culture of Normal Human Leukoctyes.” JAMA, v. 199, 519-524 (1967). On the day of the experiment, the medium was removed, and the INS-1 cells were washed three times and then preincubated for 30 min in KRB (Krebs-Ringer buffer: 115 mM NaCl, 5.9 mM KCl, 1.2 mM MgCl2, 1.2 mM NaH2PO4, 1.2 mM Na2PO4, 2.5 mM CaCl2, 25 mM NaHCO3, pH 7.4) comprising 0.5% BSA and 3.3 mM glucose. Cells were washed again with phosphate buffered saline (PBS: 137 mM NaCl, 2.7 mM KCl, 12 mM phosphate, pH 7.4) and incubated with different physiological and pathological glucose concentrations (2.8, 5.6, 11.2, 16.7, 33.2 mmol/L) for 48 hrs. After another washing, the amounts of insulin secreted by the INS-1 cells into the supernatant over another 48 hrs under the very same glucose conditions were determined using a rat insulin ELISA kit (units: ng/dl) (Immundiagnostik AG, Bensheim, Del.—Article No. KA80INSRT1). […]"}},
  "data": [
    {"substance": "porcine relaxin-1 [porcine RLX]", "values": [
      {"measurement": "HOMA value of each animal (FIG. 1A)", "setting": "[1]", "value": "reduced HOMA value"}
    ]},
    {"substance": "human relaxin-2 (H2 relaxin)", "values": [
      {"measurement": "homeostatic model assessment (HOMA) in each diabetic patient (FIG. 2A)", "setting": "[2]; 10 to 960 μg/kg per day, diabetic patients", "value": "improved"},
      {"measurement": "homeostatic model assessment (HOMA) in non-diabetic subjects", "setting": "[2]; subjects having an initial HOMA of less than 2.0", "value": "no or little impact"}
    ]},
    {"substance": "relaxin", "values": [
      {"measurement": "half-life in vivo", "setting": "[3]", "value": "about two"},
      {"measurement": "clinically adverse effects", "setting": "[4]", "value": "no clinically adverse effects were observed"},
      {"measurement": "direct effect on glucose levels in blood", "setting": "[5]", "value": "not found any direct effect"},
      {"measurement": "insulin secretion (as determined in cell supernatants)", "setting": "[6]; 10 nM porcine relaxin-1, baseline and high-glucose conditions, secretion period of 48 hours, INS-1 cells", "value": "increased insulin secretion"},
      {"measurement": "high glucose-induced down-regulation of insulin expression and/or secretory capacity", "setting": "[6]; 10 nmol/L porcine relaxin-1, cultured rat INS-1 cells, n=6, P<0.05 vs. control", "value": "efficient in preventing"}
    ]}
  ]
}
